Reference: patent US8143212B2 (Vicuron Pharmaceuticals Inc., priority 2002, dated 2012)
Where “and” joins values, the source holds several entries; their conditions need not be identical. Equal entries are not always repeated.

Experiments:
S haemolyticus = test: MIC, microbiological activity (Table 3); type: cell-based; settings: L 602 S haemolyticus clin. isolate; read-out: MIC
[1] = human, in vivo
Excerpt: The study enrolled otherwise healthy subjects with mild, moderate, or severe hepatic impairment (Child-Pugh scores 5 to 6, 7 to 9, and 10 to 15, respectively) and matched control subjects with normal hepatic function.

[2] = Pharmacokinetics and renal excretion in healthy subjects, single 1000 mg IV; type: in vivo, human; settings: for t1/2: healthy subjects, single 1000 mg IV
Experimental: Blood samples were drawn into heparinized tubes and centrifuged. Plasma was separated and stored frozen at −20° C. until time of assay. Plasma and urine samples were assayed for dalbavancin using validated LC/MS/MS methods. […] The peak concentration (Cmax) values were obtained directly from the observed data. The area under the plasma concentration-time curve (AUC) was calculated using the linear trapezoidal rule. Clearance (CL) was computed as dose/AUC. The elimination half life (t1/2) was estimated by linear regression of the log-linear portion of the log concentration versus time curve. Estimates of the volume of distribution (VZ) was calculated using the regression parameters, while the volume of distribution at steady state (VSS) was calculated from the area under the first moment curve (AUMC) multiplied by the dose and divided by AUC. The cumulative amount of dalbavancin excreted in urine was determined as the integrand of the urine excretion rate (AURC). CLR, or renal clearance, was calculated as the ratio: CLR=AURC/AUC.

[3] = test system: skin and soft tissue infections (SSTI); test: Phase II SSTI trial: clinical response; type: in vivo, human
Experimental: This randomized, controlled study evaluated the safety and efficacy of two dose regimens of dalbavancin.
There were 62 patients randomized into the study; all received at least one dose of study medication. Four study populations were evaluated for safety and efficacy and were defined as follows: The intent-to-treat (ITT) population included all patients who received at least one dose of study drug (all randomized study subjects).
The effectiveness of the three treatment regimens was determined by assessing the patients' clinical response and the documented or presumed microbiological responses. The primary efficacy endpoint was clinical response at the follow-up visit for the clinically evaluable population. Clinical response, for both EOT and FU visits, was categorized as success (cure or improvement) or failure (including indeterminate results). Patients classified as successes must not have received additional systemic antibacterial treatment for their infection. Failure was defined as persistence of one or more local or systemic signs and symptoms of SSTI such that treatment with new or additional systemic antibacterial agents was required for the SSTI.

S. pneumoniae = test: Murine thigh-infection model (time kill, dosing regimen, PK/PD, neutrophils; Tables 31-33); type: in vivo, mice
Experimental: Each point represents the mean of 4 thighs. Five dose levels, ranging 16-fold were used.
Five different doses (two-fold increases) were used. […] Each point represents the mean of 4 thighs.
Each point represents the mean of four thighs.
Each point represents the mean value from 4 thighs. The static dose, and the doses associated with a 1 and 2 log kill were calculated from the parameters estimated by non-linear regression using the Hill equation.

[4] = Mean ± SD of S. pneumoniae strains, q 24 h regimen
[5] = Mean ± SD of S. pneumoniae strains, q 72 h regimen

For `CN[C@H]1C(=O)N[C@@H]2Cc3ccc(cc3)Oc3cc4cc(c3O[C@@H]3O[C@H](C(=O)O)[C@@H](O)[C@H](O)[C@H]3NC(=O)CCCCCCCCC(C)C)Oc3ccc(cc3Cl)[C@@H](O)[C@@H]3NC(=O)[C@H](NC(=O)[C@@H]4NC(=O)[C@@H](NC2=O)c2cc(cc(O)c2Cl)Oc2cc1ccc2O)c1ccc(O)c(c1)-c1c(O[C@H]2O[C@H](CO)[C@@H](O)[C@H](O)[C@@H]2O)cc(O)cc1[C@@H](C(=O)NCCCN(C)C)NC3=O` [Dalbavancin], the MIC (S haemolyticus) was > 32 µg/mL, the tolerability [1] was “well tolerated” and the t1/2 ([2]; Max) was 11.8 days. The t1/2 ([2]; Min) was 9.46 days, the peak concentration ([2]; both, human, in vivo) was ~165 µM and the “Clinical Success Rate” value ([3]; Clinically evaluable at EOT, Single-dose (1100 mg)) was 13/16 (61.5) %. For the same compound, the “Clinical Success Rate” value ([3]; Clinically evaluable at EOT, Two-dose (1000/500 mg)) was 16/17 (94.1) %, the “Clinical Success Rate” value ([3]; Clinically evaluable at FU, Single-dose (1100 mg)) was 8/13 (61.5) % and the “Clinical Success Rate” value ([3]; Clinically evaluable at FU, Two-dose (1000/500 mg)) was 16/17 (94.1) %. For the same compound, the “Clinical Success Rate” value ([3]; ITT at EOT, Single-dose (1100 mg)) was 15/20 (75.0) %, the “Clinical Success Rate” value ([3]; ITT at EOT, Two-dose (1000/500 mg)) was 19/21 (90.5) % and the “Clinical Success Rate” value ([3]; ITT at FU, Single-dose (1100 mg)) was 12/20 (60.0) %. For the same compound, the “Clinical Success Rate” value ([3]; ITT at FU, Two-dose (1000/500 mg)) was 19/21 (90.5) %, the “Clinical Success Rate” value ([3]; MITT at EOT, Single-dose (1100 mg)) was 10/14 (71.4) % and the “Clinical Success Rate” value ([3]; MITT at EOT, Two-dose (1000/500 mg)) was 12/13 (92.3) %. The “Clinical Success Rate” value ([3]; MITT at FU, Single-dose (1100 mg)) was 7/14 (50.0) %, the “Clinical Success Rate” value ([3]; MITT at FU, Two-dose (1000/500 mg)) was 12/13 (92.3) % and the Clinical Success Rate ([3]; MITT population with MRSA, FU assessment, single-dose) was 50%. The Clinical Success Rate ([3]; MITT population with MRSA, FU assessment, two-dose) was 80%, the “Clinical Success Rate” value ([3]; Microbiologically evaluable at EOT, Single-dose (1100 mg)) was 10/13 (76.9) % and the “Clinical Success Rate” value ([3]; Microbiologically evaluable at EOT, Two-dose (1000/500 mg)) was 10/11 (90.9) %. The “Clinical Success Rate” value ([3]; Microbiologically evaluable at FU, Single-dose (1100 mg)) was 6/11 (54.5) %, the “Clinical Success Rate” value ([3]; Microbiologically evaluable at FU, Two-dose (1000/500 mg)) was 10/11 (90.9) % and the Clinical Success Rate ([3]; clinically-evaluable population, FU assessment, single-dose: 1100 mg IV day 1) was 61.5%. For the same compound, the Clinical Success Rate ([3]; clinically-evaluable population, FU assessment, two-dose: 1 g IV day 1 + 500 mg IV day 8) was 94.1% and 94%, the “1 Log Kill f24AUC/MIC” value (S. pneumoniae; [4]) was 21 ± 7.4 and the “1 Log Kill mg/kg/24 h” value (S. pneumoniae; [4]) was 1.1 ± 0.47 mg/kg/24 h. For the same compound, the “2 Log Kill f24AUC/MIC” value (S. pneumoniae; [4]) was 24.3 ± 8.2, the “2 Log Kill mg/kg/24 h” value (S. pneumoniae; [4]) was 1.23 ± 0.52 mg/kg/24 h and the “Static Effect f24AUC/MIC” value (S. pneumoniae; [4]) was 17.6 ± 6.9. The “Static Effect mg/kg/24 h” value (S. pneumoniae; [4]) was 0.91 ± 0.44 mg/kg/24 h, the “1 Log Kill f24AUC/MIC” value (S. pneumoniae; [5]) was 9.0 ± 5.8 and the “1 Log Kill mg/kg/24 h” value (S. pneumoniae; [5]) was 0.93 ± 0.24 mg/kg/24 h. The “2 Log Kill f24AUC/MIC” value (S. pneumoniae; [5]) was 16.6 ± 12.3, the “2 Log Kill mg/kg/24 h” value (S. pneumoniae; [5]) was 1.13 ± 0.36 mg/kg/24 h and the “Static Effect f24AUC/MIC” value (S. pneumoniae; [5]) was 7.2 ± 4.5. For the same compound, the “Static Effect mg/kg/72 h” value (S. pneumoniae; [5]) was 0.77 ± 0.18 mg/kg/72 h, the “1 Log Kill f24AUC/MIC” value (S. pneumoniae; SP1199, q 24 h regimen) was 19.4 and the “1 Log Kill mg/kg/24 h” value (S. pneumoniae; SP1199, q 24 h regimen) was 0.49 mg/kg/24 h. The “2 Log Kill f24AUC/MIC” value (S. pneumoniae; SP1199, q 24 h regimen) was 22.7, the “2 Log Kill mg/kg/24 h” value (S. pneumoniae; SP1199, q 24 h regimen) was 0.57 mg/kg/24 h and the “Static Effect f24AUC/MIC” value (S. pneumoniae; SP1199, q 24 h regimen) was 16.0. The “Static Effect mg/kg/24 h” value (S. pneumoniae; SP1199, q 24 h regimen) was 0.40 mg/kg/24 h, the “1 Log Kill f24AUC/MIC” value (S. pneumoniae; SP1199, q 72 h regimen) was 12.1 and the “1 Log Kill mg/kg/24 h” value (S. pneumoniae; SP1199, q 72 h regimen) was 0.85 mg/kg/24 h. For the same compound, the “2 Log Kill f24AUC/MIC” value (S. pneumoniae; SP1199, q 72 h regimen) was 35.3, the “2 Log Kill mg/kg/24 h” value (S. pneumoniae; SP1199, q 72 h regimen) was 0.99 mg/kg/24 h and the “Static Effect f24AUC/MIC” value (S. pneumoniae; SP1199, q 72 h regimen) was 10.3. For the same compound, the “Static Effect mg/kg/72 h” value (S. pneumoniae; SP1199, q 72 h regimen) was 0.72 mg/kg/72 h, the “1 Log Kill f24AUC/MIC” value (S. pneumoniae; SP1293, q 24 h regimen) was 21.7 and the “1 Log Kill mg/kg/24 h” value (S. pneumoniae; SP1293, q 24 h regimen) was 0.55 mg/kg/24 h. For the same compound, the “2 Log Kill f24AUC/MIC” value (S. pneumoniae; SP1293, q 24 h regimen) was 25.9, the “2 Log Kill mg/kg/24 h” value (S. pneumoniae; SP1293, q 24 h regimen) was 0.65 mg/kg/24 h and the “Static Effect f24AUC/MIC” value (S. pneumoniae; SP1293, q 24 h regimen) was 17.4. For the same compound, the “Static Effect mg/kg/24 h” value (S. pneumoniae; SP1293, q 24 h regimen) was 0.44 mg/kg/24 h and the “1 Log Kill f24AUC/MIC” value (S. pneumoniae; SP1293, q 72 h regimen) was 18.
